Data reported in patent publication US4544660A, “Pharmaceutically active tropanes” (Beecham Group p.l.c., priority 1978, dated 1985).

Experiments:
Format in all cases: in vivo
vomiting response = test: Anti-emetic activity in the dog (apomorphine induced vomiting); details: Canis lupus familiaris, 30 min before apomorphine HCl 0.1 mg/kg s.c.; for ED100: s.c., complete inhibition, read-out: II Anti-Emetic Activity Dose, Complete Inhibition
Protocol: II. Anti-emetic activity in the dog
Compounds were administered subcutaneously 30 minutes prior to administration of a standard dose of apomorphine HCl (0.1 mg/kg subcutaneously) and the vomiting response compared to that obtained when the same animals were dosed with apomorphine HCl and vehicle only.

Dopamine Receptor [1] = test: Inhibition of apomorphine induced climbing in the mouse; details: p.o., apomorphine 1 mg/kg s.c., complete inhibition
Protocol: (§1) I. Dopamine Receptor Blocking Activity in the Central Nervous System
(b) Inhibition of apomorphine induced climbing in the mouse
The test is based on that described by Protais, P., Constantin, J. and Schwartz J.C. (1976), Psychopharmacology, 50, 1-6.
Apomorphine 1 mg/kg s.c. induces mice to climb the wall of a wire cage (inverted food hopper--11×7.5×18 cm high). Mice acclimatised in their home cages in groups of 5 are placed under the hoppers immediately after the injection of apomorphine 1 mg/kg s.c. At 10,20 and 30 minutes after injection climbing behaviour is scored. The mice are observed for 30 seconds and scored according to the position they spend the majority of time in, score 0--four paws on floor of cage; score 1--fore paws only on walls; score 2--all paws on wall of cage. The scores at all 3 times and for each mouse are summed and mice drug treated orally compared to mice receiving apomorphine only. A saline only treated group is also included and any score, generally <5% of maximum taken into account.

Dopamine Receptor [2] = test: Inhibition of apomorphine induced stereotype behaviour in the rat; details: s.c., apomorphine induced, complete inhibition, IA(x) = inactive at dose in brackets
Excerpt: as §1
(a) Inhibition of apomorphine induced stereotype behaviour in the rat
(method of Ernst (1967), Psychopharmacologia (Berl.) 10 316-323).

intragastric pressure = test: Increase in intragastric pressure in the rat; set-up: III(a) Increase in Intragastric Pressure Dose (minimum dose for activity): unit not given here; details: s.c., 40 minute period after administration; for minimal effective dose: sc, 40 min, read-out: III(a) Increase in Intragastric Pressure Dose (minimum dose for activity)
Protocol: (a) Increase in intragastric pressure in the rat
Intragastric pressure changes were recorded from previously starved conscious but restrained rats using a saline filled catheter inserted into the lumen of the stomach via a permanent gastric fistula. The catheter was connected to a physiological pressure transducer and pressure changes recorded on a hot wire pen recorder. In each animal a pre-dose period of 40 minutes was allowed to obtain a measure of spontaneous activity. An index of activity was obtained by measuring the average height of pressure waves during 10 minute periods. Values for 4 such periods were obtained during assessment of spontaneous activity and for the 40 minute period after the subcutaneous administration of the compounds. Students `t` test was applied to the difference in average values obtained for spontaneous and post-compound activity.

gastric emptying = test: Increase in gastric emptying: reversal of apomorphine induced delay in gastric emptying in the rat; set-up: key to III(b) Increase in Gastric Emptying: IA: inactive at the dose in the brackets, mg/Kg s.c; details: 10 mg/kg s.c.; for III(b) Increase in Gastric Emptying: apomorphine HCl 5 mg/kg s.c. induced delay
Protocol: (b) Increase in gastric emptying: reversal of apomorphine induced delay in gastric emptying in the rat
Rats equipped with chromic gastric fistulae were used and it was through this that 5 ml of a test meal (5 ml phosphate buffer at pH 9) was administered and recovered. The % recovery of the standard meal after remaining in the stomach for 10 minutes was taken as an index of gastric emptying. Delay in gastric emptying was induced by the administration of apomorphine HCl (5 mg/kg subcutaneously) which was given 15 minutes prior to the subcutaneous administration of the compound. The % recoveries of the test meal were determined at 15-25 and 45-55 minutes post-dosing with the compound and compared with vehicle only dosed animals set up simultaneously. Six animals were used for each group.

| SMILES | ED100 (vomiting response) [mg/kg] | I(b) Anti-Climbing Activity Dose, Complete Inhibition (Dopamine Receptor [1]) | I(a) Dose Inhibiting Stereotype Behaviour (dose for complete inhibition) (Dopamine Receptor [2]) | minimal effective dose (intragastric pressure) [mg/kg] | other results |
| --- | --- | --- | --- | --- | --- |
| COc1ccc(CN2[C@@H]3CC[C@H]2C[C@H](NC(=O)c2cc(Cl)c(N)cc2OC)C3)cc1 [Compound 14, 4amino-5-chloro-2-methoxy-N-(3β-[8'[4"methoxybenzyl]-8'-azabicyclo[3.2.1]octyl])-benzamide] | 0.1 | 10 mg/kg |  |  |  |
| COc1cc(N)c(Cl)cc1C(=O)N[C@H]1C[C@H]2CC[C@@H](C1)N2Cc1ccccc1 [Compound 3, 4-amino-5-chloro-2-methoxy-N-(3',α-[8'-benzyl]nortropyl)benzamide] | 0.05 |  | 50 mg/kg |  |  |
| CCN1[C@@H]2CC[C@H]1C[C@H](NC(=O)c1cc(Cl)c(N)cc1OC)C2 [Compound 23, 4-amino-5-chloro-2-methoxy-N-(3'β-[8'-ethyl-8'-azabicyclo[3.2.1]octyl])benzamide] | 1.6 | IA (inactive at 10 mg/Kg p.o.) | IA(25) | 1 to 10 | III(b) Increase in Gastric Emptying (gastric emptying): 25% |
| CCCN1[C@@H]2CC[C@H]1C[C@H](NC(=O)c1cc(Cl)c(N)cc1OC)C2 [Compound 24, 4-amino-5-chloro-2-methoxy-N-(3'β-[8'-n-propyl-8'-azabicyclo[3.2.1]-octyl])benzamide] | 0.4 | IA (inactive at 10 mg/Kg p.o.) | IA(25) | 5 to 10 | III(b) Increase in Gastric Emptying (gastric emptying): IA(25) |
| COc1ccccc1C(=O)N[C@@H]1C[C@H]2CC[C@@H](C1)N2Cc1ccccc1 [Compound 9, 2-Methoxy-N-(3'β-[8'-benzyl-8'-azabicyclo-[3.2.1]-octyl])-benzamide] | 0.1 | 10 mg/kg |  |  |  |
| COc1cc(N)c(Cl)cc1C(=O)N[C@@H]1C[C@H]2CCC[C@@H](C1)N2C [Compound 22, 4-amino-5-chloro-2-methoxy-N-(3'β-[9'-methyl-9'-azabicyclo[3.3.1]-nonyl])-benzamide] |  | IA (inactive at 10 mg/Kg p.o.) | IA(25) | 1 | III(b) Increase in Gastric Emptying (gastric emptying): IA(25) |
| COc1ccc(S(N)(=O)=O)cc1C(=O)N[C@@H]1C[C@H]2CC[C@@H](C1)N2Cc1ccccc1 [Compound 8, 5-Sulphamoyl-2-methoxy-N-(3'β-[8'-benzyl]-8'-azabicyclo-[3.2.1]-octyl)-benzamide] | 0.1 | IA (inactive at 10 mg/Kg p.o.) |  |  | III(a) Increase in Intragastric Pressure Dose (minimum dose for activity) (intragastric pressure): IA(5) |
| COc1cc(N)c(Cl)cc1C(=O)N[C@H]1C[C@H]2CCC[C@@H](C1)N2Cc1ccccc1 [Compound 11, 4-amino-5-chloro-2-methoxy-N-(3'α-[9'-benzyl-9'-azabicyclo-[3,3,1]-nonyl])-benzamide] |  | IA (inactive at 10 mg/Kg p.o.) | IA(50) | 1 |  |
| C=CCN1[C@@H]2CC[C@H]1C[C@H](NC(=O)c1cc(Cl)c(N)cc1OC)C2 [Compound 32, 4-amino-5-chloro-2-methoxy-N-(3'β-[8'-ally-8-azabicyclo[3.2.1]octyl])benzamide] | 0.2 |  |  |  |  |
| COc1cc(N)c(Cl)cc1C(=O)N[C@@H]1C[C@H]2CC[C@@H](C1)N2C1CCCCC1 [Compound 31, 4-amino-5-chloro-2-methoxy-N-(3'β-[8'-cyclohexyl-8-azabicyclo[3.2.1]octyl])benzamide] | 0.25 | IA (inactive at 10 mg/Kg p.o.) |  |  |  |
| COc1cc(N)c(Cl)cc1C(=O)N[C@@H]1C[C@H]2CC[C@@H](C1)N2CC(C)C [Compound 28, 4-amino-5-chloro-2-methoxy-N-(3'β-[8'-isobutyl-8'-azabicyclo-[3.2.1]-octyl])-benzamide] | 0.2 |  |  | 5 |  |
| COc1cc(N)c(Cl)cc1C(=O)N[C@H]1C[C@H]2CCC[C@@H](C1)N2C [Compound 21, 4-amino-5-chloro-2-methoxy-N-(3'α-[9'-methyl-9'-azabicyclo[3.3.1]nonyl])benzamide] |  | 10 mg/kg | IA(50) | 5 |  |
| CCOc1ccc(CN2[C@@H]3CC[C@H]2C[C@H](NC(=O)c2cc(Cl)c(N)cc2OC)C3)cc1 [Compound 15, 4amino-5-chloro-2-methoxy-N-(3β-[8'[4"ethoxybenzyl]-8'-azabicyclo[3.2.1]octyl])-benzamide] | 0.1 | 10 mg/kg |  |  |  |
| COc1cc(N)c(Cl)cc1C(=O)NC1CC2CCC(C1)N2Cc1ccccc1 (stereo not drawn) [Compound 2, 4-amino-5-chloro-2-methoxy-N-(3'α, 8-[8'-benzyl]8-azabicyclo[3,2,1]octyl)benzamide] | 0.0025 |  | 10 mg/kg |  | % Recovery of test meal, mean ± S.E. of mean, 15-25 mins. (gastric emptying; 15-25 mins post dosing, apomorphine, printed with **, apomorphine + vehicle 72.4 ± 5.1): 37.4 ± 6.7%; % Recovery of test meal, mean ± S.E. of mean, 45-55 mins. (gastric emptying; 45-55 mins post dosing, apomorphine, printed with ***, apomorphine + vehicle 60.7 ± 7.3): 18.3 ± 1.1% |
| COc1cc(N)c(Cl)cc1C(=O)N[C@@H]1C[C@H]2CC[C@@H](C1)N2Cc1ccc(Cl)cc1 [Compound 16, 4amino-5-chloro-2-methoxy-N-(3β-[8'[4"chlorobenzyl]-8'-azabicyclo[3.2.1]octyl])-benzamide] |  | 2 mg/kg |  |  |  |
| COc1cc(N)c(Cl)cc1C(=O)N[C@@H]1C[C@H]2CC[C@@H](C1)[N+]2(C)Cc1ccccc1 (stereo partly drawn) [Compound 10, 4-Amino-5-chloro-2-methoxy-N-(3'β-[8'-benzyl]-8'-azabicyclo[3.2.1]octyl)-benzamide methobromide] |  | IA(2) |  | 0.25 |  |
| COc1cc(N)c(Cl)cc1C(=O)N(C)[C@H]1C[C@H]2CC[C@@H](C1)N2Cc1ccccc1 [Compound 6, 4-Amino-5-chloro-2-methoxy-N-methyl-N-(3'α-[8'-benzyl-8'-azabicyclo[3.2.1]octyl])benzamide] |  | IA (inactive at 10 mg/Kg p.o.) | IA(50) | 10 | III(b) Increase in Gastric Emptying (gastric emptying): IA(50) |
| COc1cc(N)c(Cl)cc1C(=O)N[C@@H]1C[C@H]2CC[C@@H](C1)N2C(C)C [Compound 25, 4-amino-5-chloro-2-methoxy-N-(3'β-[8'-iso-propyl-8'-azabicyclo[3.2.1]-octyl])benzamide] |  | IA (inactive at 10 mg/Kg p.o.) | IA(25) | 5 | ED50 (vomiting response; sc, ED50, read-out: II Anti-Emetic Activity Dose, ED50): 0.8 mg/kg; III(b) Increase in Gastric Emptying (gastric emptying): IA |
